Measured values: ChEMBL document CHEMBL4002612, “Study of antileishmanial activity of 2-aminobenzoyl amino acid hydrazides and their quinazoline derivatives” (Bioorg Med Chem Lett, 2017)

Experiments:
Leishmania aethiopica [1] = test: Antileishmanial activity against promastigote stage of Leishmania aethiopica assessed as parasite growth inhibition after 24 hrs by Alamar blue assay; format: functional
Mus musculus [2] = test: Acute toxicity in mouse assessed as change in body weight at 25 to 250 mg/kg/day administered as single dose via oral gavage measured after 3 days; format: organism-based; settings: in vivo, 72 h
Mus musculus [3] = test: Acute toxicity in mouse assessed as mortality at 25 to 250 mg/kg/day administered as single dose via oral gavage measured after 3 days; format: organism-based; settings: in vivo, 72 h
Mus musculus [4] = test: Acute toxicity in mouse assessed as mortality up to 100 mg/kg, ip after 7 days; format: organism-based; settings: in vivo, 168 h
Mus musculus [5] = test: Acute toxicity in mouse assessed as change in kidney texture at 250 mg/kg/day administered as single dose via oral gavage by microscopic method; format: organism-based; settings: in vivo
Mus musculus [6] = test: Acute toxicity in mouse assessed as change in spleen texture at 250 mg/kg/day administered as single dose via oral gavage by microscopic method; format: organism-based; settings: in vivo
Mus musculus [7] = test: Acute toxicity in mouse assessed as change in liver texture at 250 mg/kg/day administered as single dose via oral gavage by microscopic method; format: organism-based; settings: in vivo
Mus musculus [8] = test: Acute toxicity in mouse assessed as change in kidney texture at 100 mg/kg, ip by microscopic method; format: organism-based; settings: in vivo
Mus musculus [9] = test: Acute toxicity in mouse assessed as change in spleen texture at 100 mg/kg, ip by microscopic method; format: organism-based; settings: in vivo
Mus musculus [10] = test: Acute toxicity in mouse assessed as change in liver texture at 100 mg/kg, ip by microscopic method; format: organism-based; settings: in vivo
Leishmania aethiopica [11] = test: Potency index, ratio of mitefosine IC50 to test compound IC50 for promastigote stage of Leishmania aethiopica; format: functional

Question: With `O=C(N/N=C/c1ccco1)C(Cc1ccccc1)N1C(=O)c2ccccc2NC1c1ccco1` (centres undefined) as the compound, how does the IC50 (Leishmania aethiopica [1]) read?
Answer: The IC50 was 9.05 µM.

Question: How did the IC50 (Leishmania aethiopica [1]) turn out when `NNC(=O)C(Cc1ccccc1)NC(=O)c1ccccc1N` (centres undefined) was run?
Answer: Its IC50 is 2.9 µM.

Question: `O=C(CCCCCN1C(=O)c2ccccc2NC1c1ccc2c(c1)OCO2)N/N=C/c1ccc2c(c1)OCO2` (centres undefined) was tested. Which IC50 (Leishmania aethiopica [1]) did it give?
Answer: The IC50 was 9.33 µM.

Question: Which IC50 (Leishmania aethiopica [1]) does the source give for `CC(C(=O)N/N=C/c1ccco1)N1C(=O)c2ccccc2NC1c1ccco1` (centres undefined) here?
Answer: Its IC50 is 10.7 µM.

Question: How did the IC50 (Leishmania aethiopica [1]) turn out when `COC(=O)CNC(=O)c1ccccc1N` was run?
Answer: Its IC50 is 29.2 µM.

Question: Which results are given for `O=C(CNC(=O)c1ccccc1/N=C/c1ccc(Cl)cc1)N/N=C\c1ccc(Cl)cc1`?
Answer: IC50 (Leishmania aethiopica [1]): 0.052 µM; Activity (Mus musculus [2]): Non-Toxic; Activity (Mus musculus [3]): Non-Toxic; Activity (Mus musculus [4]): Non-Toxic; Activity (Mus musculus [5]): Non-Toxic; Activity (Mus musculus [6]): Non-Toxic; Activity (Mus musculus [7]): Non-Toxic; Activity (Mus musculus [8]): Non-Toxic; Activity (Mus musculus [9]): Non-Toxic; Activity (Mus musculus [10]): Non-Toxic

Question: `COC(=O)CCCCCNC(=O)c1ccccc1N` was tested. Which IC50 (Leishmania aethiopica [1]) did it give?
Answer: The IC50 was 21.3 µM.

Question: With `COC(=O)CCCNC(=O)c1ccccc1N` as the compound, how does the IC50 (Leishmania aethiopica [1]) read?
Answer: The IC50 was 17.3 µM.

Question: Which IC50 (Leishmania aethiopica [1]) does the source give for `O=C(CN1C(=O)c2ccccc2NC1c1ccc2c(c1)OCO2)N/N=C/c1ccc2c(c1)OCO2` (centres undefined) here?
Answer: Its IC50 is 12 µM.

Question: With `O=C(CCN1C(=O)c2ccccc2NC1c1ccccc1)N/N=C/c1ccccc1` (centres undefined) as the compound, how does the IC50 (Leishmania aethiopica [1]) read?
Answer: The IC50 was 12.6 µM.

Question: `O=C(CCCN1C(=O)c2ccccc2NC1c1ccco1)N/N=C/c1ccco1` (centres undefined) was tested. Which IC50 (Leishmania aethiopica [1]) did it give?
Answer: Its IC50 is 10.4 µM.

Question: How did the IC50 (Leishmania aethiopica [1]) turn out when `COC(=O)C(Cc1ccccc1)NC(=O)c1ccccc1N` (centres undefined) was run?
Answer: Its IC50 is 15.6 µM.

Question: For `COc1ccc(/C=N/NC(=O)CN2C(=O)c3ccccc3NC2c2ccc(OC)cc2)cc1` (centres undefined), which IC50 (Leishmania aethiopica [1]) is on record?
Answer: Its IC50 is 9.07 µM.

Question: Which IC50 (Leishmania aethiopica [1]) does the source give for `NNC(=O)CCCCCNC(=O)c1ccccc1N` here?
Answer: The IC50 was 0.051 µM.

Question: And the Activity (Mus musculus [2])?
Answer: Its Activity is “Non-Toxic”.

Question: What about the Activity (Mus musculus [3]) of the same compound?
Answer: Its Activity is “Non-Toxic”.

Question: And the Activity (Mus musculus [4])?
Answer: The Activity was “Non-Toxic”.

Question: And the Activity (Mus musculus [5])?
Answer: Its Activity is “Non-Toxic”.

Question: What about the Activity (Mus musculus [6]) of the same compound?
Answer: The Activity was “Non-Toxic”.

Question: And the Activity (Mus musculus [7])?
Answer: Its Activity is “Non-Toxic”.

Question: What about the Activity (Mus musculus [8]) of the same compound?
Answer: Its Activity is “Non-Toxic”.

Question: What about the Activity (Mus musculus [9]) of the same compound?
Answer: The Activity was “Non-Toxic”.

Question: What about the Activity (Mus musculus [10]) of the same compound?
Answer: The Activity was “Non-Toxic”.

Question: What about the “Ratio IC50” value (Leishmania aethiopica [11]) of the same compound?
Answer: The value was 154.

Question: What does the source list for `NNC(=O)CNC(=O)c1ccccc1N`?
Answer: IC50 (Leishmania aethiopica [1]): 0.127 µM; Activity (Mus musculus [2]): Non-Toxic; Activity (Mus musculus [3]): Non-Toxic; Activity (Mus musculus [4]): Non-Toxic; Activity (Mus musculus [5]): Non-Toxic; Activity (Mus musculus [6]): Non-Toxic; Activity (Mus musculus [7]): Non-Toxic; Activity (Mus musculus [8]): Non-Toxic; Activity (Mus musculus [9]): Non-Toxic; Activity (Mus musculus [10]): Non-Toxic

Question: `O=C(CCNC(=O)c1ccccc1/N=C/c1ccc(Cl)cc1)N/N=C/c1ccc(Cl)cc1` was tested. Which IC50 (Leishmania aethiopica [1]) did it give?
Answer: Its IC50 is 4.34 µM.

Question: How did the IC50 (Leishmania aethiopica [1]) turn out when `O=C(CCCCCN1C(=O)c2ccccc2NC1c1ccco1)N/N=C/c1ccco1` (centres undefined) was run?
Answer: The IC50 was 11.1 µM.

Question: `COC(=O)CCNC(=O)c1ccccc1N` was tested. Which IC50 (Leishmania aethiopica [1]) did it give?
Answer: The IC50 was 26.4 µM.

Question: How did the IC50 (Leishmania aethiopica [1]) turn out when `C[C@@H]1[C@H](O)[C@@H](C)/C=C/C=C/C=C/C=C/C=C/C=C/C=C/[C@H](O[C@@H]2O[C@H](C)[C@@H](O)[C@H](N)[C@@H]2O)C[C@@H]2O[C@](O)(C[C@@H](O)C[C@@H](O)[C@H](O)CC[C@@H](O)C[C@@H](O)CC(=O)O[C@H]1C)C[C@H](O)[C@H]2C(=O)O.C[C@H](CCC(=O)O)[C@H]1CC[C@H]2[C@@H]3CC[C@@H]4C[C@H](O)CC[C@]4(C)[C@H]3C[C@H](O)[C@]12C` was run?
Answer: Its IC50 is 0.035 µM.

Question: `COC(=O)C(C)NC(=O)c1ccccc1N` (centres undefined) was tested. Which IC50 (Leishmania aethiopica [1]) did it give?
Answer: The IC50 was 23 µM.

Question: Which results are given for `CC(NC(=O)c1ccccc1N)C(=O)NN` (centres undefined)?
Answer: IC50 (Leishmania aethiopica [1]): 0.185 µM; Activity (Mus musculus [2]): Non-Toxic; Activity (Mus musculus [3]): Non-Toxic; Activity (Mus musculus [4]): Non-Toxic; Activity (Mus musculus [5]): Non-Toxic; Activity (Mus musculus [6]): Non-Toxic; Activity (Mus musculus [7]): Non-Toxic; Activity (Mus musculus [8]): Non-Toxic; Activity (Mus musculus [9]): Non-Toxic; Activity (Mus musculus [10]): Non-Toxic

Question: With `O=C(N/N=C/c1ccc(Cl)cc1)C(Cc1ccccc1)N1C(=O)c2ccccc2NC1c1ccc(Cl)cc1` (centres undefined) as the compound, how does the IC50 (Leishmania aethiopica [1]) read?
Answer: The IC50 was 10.1 µM.
